Key:
[1] = test system: Glyc. max; experiment: preemergence treatment in the greenhouse, % damage; type: in vivo, Glycine max
Description: (§1) The vessels employed were plastic flowerpots having a volume of 300 cm^3; the substrate was a sandy loam containing about 1.5% humus. The seeds of the test plants (see Table 1) were sown shallow, and separated according to species. In the case of Cyperus esculentus, pregerminated tubers were planted. In the preemergence treatment, the active ingredients were then immediately applied to the surface of the soil. They were suspended or emulsified in water as the vehicle, and sprayed through atomizing nozzles. After the agents had been applied, the vessels were lightly sprinkler-irrigated to set germination and growth going, and to activate the chemical agents. The vessels were then covered with transparent plastic hoods until the plants had taken root. This cover ensured uniform germination of the test plants (to the extent that this was not impaired by the chemicals), and prevented readily volatile substances from evaporating.
(§2) For postemergence treatment, the plants were first grown to a height of from 3 to 10 cm, depending on their habit, before treated. Hoods were not placed on the pots. The experiments were set up in the greenhouse, hotter areas (25° to 40° C.) being preferred for heat-loving species, and 15° to 30° C. for plants from moderate climates. The experiments were carried out for from 4 to 6 weeks. During this period the plants were tended and their reaction to the various treatments was assessed. The following tables contain the substances investigated, the application rates in kg/ha of active ingredient, and the test plant species. Assessments were made on a 0 to 100 scale, 0 denoting no damage or normal emergence, and 100 denoting no emergence or complete destruction of at least the visible plant parts.

[2] = test system: Gossyp. hirs.; experiment: preemergence treatment in the greenhouse, % damage; type: in vivo, Gosspyium hirsutum
Description: as §1, §2

[3] = test system: Echin. c.g.; experiment: preemergence treatment in the greenhouse, % damage; type: in vivo
Description: as §1, §2

[4] = test system: Setaria spp.; experiment: preemergence treatment in the greenhouse, % damage; type: in vivo
Description: as §1, §2

[5] = test system: Euph. gen.; experiment: preemergence treatment in the greenhouse, % damage; type: in vivo
Description: as §1, §2

[6] = test system: Matric. spp.; experiment: preemergence treatment in the greenhouse, % damage; type: in vivo
Description: as §1, §2

[7] = test system: Alopec. myosur.; experiment: preemergence treatment in the greenhouse, % damage; type: in vivo
Description: as §1, §2

[8] = test system: Amar. retro.; experiment: preemergence treatment in the greenhouse, % damage; type: in vivo
Description: as §1, §2

[9] = test system: Stell. med.; experiment: preemergence treatment in the greenhouse, % damage; type: in vivo
Description: as §1, §2

[10] = test system: Cyp. diff.; experiment: preemergence treatment in the greenhouse, % damage; type: in vivo
Description: as §1, §2

[11] = test system: Sorgh. halep.; experiment: preemergence treatment in the greenhouse, % damage; type: in vivo
Description: as §1, §2

[12] = test system: Brassica napus; experiment: preemergence application in the open, % damage; type: in vivo
Description: (§3) The experiments were carried out on small plots. The soil was a sandy loam having a pH of from 5 to 6 and containing from 1 to 1.5% humus. The treatment was preemergence, the active ingredients being applied immediately or at the latest 3 days after sowing. The crop plants were sown in rows. The weed flora was made up of the most widely varying species and was natural; the weed flora depended on the time of the year and in part on the crop (e.g., spring-germinating, summer-germinating). The substances were emulsified or suspended in water as the vehicle, and applied by means of a motor-driven plot spray mounted on a hitch. When no rain fell, the plots were watered to ensure germination and growth of the crop plants and weeds. All the experiments were run for several weeks. Over this period, assessments were made at certain intervals on the 0 to 100 scale.

[13] = test system: Lamium spp.; experiment: preemergence application in the open, % damage; type: in vivo
Description: as §3

[14] = test system: Alopec. myosur.; experiment: preemergence application in the open, % damage; type: in vivo
Description: as §3

[15] = test system: Anth./Matric.; experiment: preemergence application in the open, % damage; type: in vivo; conditions: 2.0 kg/ha
Description: as §3

[16] = test system: Stellaria media; experiment: preemergence application in the open, % damage; type: in vivo
Description: as §3

[17] = test system: Beta vulg.; experiment: preemergence treatment in the greenhouse, % damage; type: in vivo, Beta vulgaris
Description: as §1, §2

[18] = test system: Zea mays; experiment: preemergence treatment in the greenhouse, % damage; type: in vivo
Description: as §1, §2

[19] = test system: Sorgh. bicol.; experiment: preemergence treatment in the greenhouse, % damage; type: in vivo, Sorghum bicolor
Description: as §1, §2

Row | SMILES | % damage ([1]; 1.0 kg/ha) [%] | % damage ([2]; 0.5 kg/ha) [%] | % damage ([2]; 1.0 kg/ha) [%] | % damage ([3]; 0.5 kg/ha) [%] | % damage ([3]; 1.0 kg/ha) [%] | % damage ([4]; 0.5 kg/ha) [%] | % damage ([4]; 1.0 kg/ha) [%] | % damage ([5]; 0.5 kg/ha) [%] | % damage ([5]; 1.0 kg/ha) [%] | % damage ([6]; 0.5 kg/ha) [%] | % damage ([6]; 1.0 kg/ha) [%] | % damage ([7]; 0.5 kg/ha) [%] | % damage ([7]; 1.0 kg/ha) [%] | % damage ([8]; 0.5 kg/ha) [%] | % damage ([8]; 1.0 kg/ha) [%] | % damage ([9]; 0.5 kg/ha) [%] | % damage ([9]; 1.0 kg/ha) [%] | % damage ([10]; 0.5 kg/ha) [%] | % damage ([10]; 1.0 kg/ha) [%] | % damage ([11]; 0.5 kg/ha) [%] | further results
1 | Cc1ccc(C)c(N(Cn2cccn2)C(=O)CCl)c1C [Compound 14] | 20 | 0 | 15 | 100 | 100 | 100 | 100 | 95 | 95 | 100 | 100 | 100 | 100 | 100 | 100 | 100 | 100 | 100 | 100 | 95 | % damage ([1]; 0.25 kg/ha): 10%; % damage ([1]; 0.5 kg/ha): 10%; % damage ([2]; 0.25 kg/ha): 0%; % damage ([3]; 0.25 kg/ha): 100%; % damage ([4]; 0.25 kg/ha): 100%; % damage ([5]; 0.25 kg/ha): 80%; % damage ([6]; 0.25 kg/ha): 80%; % damage ([7]; 0.25 kg/ha): 95%; % damage ([8]; 0.25 kg/ha): 100%; % damage ([9]; 0.25 kg/ha): 90%; % damage ([10]; 0.25 kg/ha): 100%; % damage ([11]; 0.25 kg/ha): 95%; % damage ([11]; 1.0 kg/ha): 100%
2 | Cc1ccc(C)c(N(Cn2cncn2)C(=O)CCl)c1C [Compound 136] | – | 10 | 10 | 95 | 95 | 90 | 100 | 45 | 65 | 50 | 90 | 50 | 90 | 70 | 70 | 30 | 80 | 90 | 90 | 80 | % damage ([11]; 1.0 kg/ha): 80%
3 | CCc1cccc(C)c1N(Cn1cncn1)C(=O)CCl [Compound 191] | – | – | – | – | – | – | – | – | – | – | – | – | – | – | – | – | – | – | – | – | % damage ([12]; 2.0 kg/ha): 5%; % damage ([12]; 4.0 kg/ha): 20%; % damage ([13]; 2.0 kg/ha): 40%; % damage ([13]; 4.0 kg/ha): 85%; % damage ([14]; 2.0 kg/ha): 30%; % damage ([14]; 4.0 kg/ha): 80%; % damage [15]: 53%; % damage ([16]; 2.0 kg/ha): 18%; % damage ([16]; 4.0 kg/ha): 45%
4 | Cc1cccc(C)c1N(Cn1nc(C)c(Cl)c1C)C(=O)CCl [Compound 106] | 10 | – | – | – | – | – | 90 | – | – | – | – | – | 100 | – | 95 | – | – | – | – | – | % damage ([1]; 2.0 kg/ha): 10%; % damage ([17]; 1.0 kg/ha): 10%; % damage ([17]; 2.0 kg/ha): 10%; % damage ([4]; 2.0 kg/ha): 95%; % damage ([7]; 2.0 kg/ha): 100%; % damage ([18]; 1.0 kg/ha): 15%; % damage ([18]; 2.0 kg/ha): 50%; % damage ([8]; 2.0 kg/ha): 95%; % damage ([19]; 1.0 kg/ha): 70%; % damage ([19]; 2.0 kg/ha): 70%
5 | Cc1ccc(Cl)cc1N(Cn1cccn1)C(=O)CCl [Compound 24] | – | – | – | – | – | – | – | – | – | – | – | – | – | – | – | – | – | – | – | – | % damage ([1]; 2.0 kg/ha): 10%; % damage ([17]; 2.0 kg/ha): 60%; % damage ([4]; 2.0 kg/ha): 85%; % damage ([7]; 2.0 kg/ha): 100%; % damage ([18]; 2.0 kg/ha): 0%; % damage ([8]; 2.0 kg/ha): 95%; % damage ([19]; 2.0 kg/ha): 10%

From patent US4593104A, “2-halo-N-(azole-1-yl-methyl)-substituted acetanilides” (BASF Aktiengesellschaft, priority 1976, dated 1986)
